# Reference: patent US8530520B2, “Cycloalkyl-dione derivatives and methods of their use” (The Trustees Of The University Of Pennsylvania, priority 2011, dated 2013)
# Target: T1, human TP receptor (Homo sapiens, UniProt P21731)
# T1 sequence (P21731 1-343): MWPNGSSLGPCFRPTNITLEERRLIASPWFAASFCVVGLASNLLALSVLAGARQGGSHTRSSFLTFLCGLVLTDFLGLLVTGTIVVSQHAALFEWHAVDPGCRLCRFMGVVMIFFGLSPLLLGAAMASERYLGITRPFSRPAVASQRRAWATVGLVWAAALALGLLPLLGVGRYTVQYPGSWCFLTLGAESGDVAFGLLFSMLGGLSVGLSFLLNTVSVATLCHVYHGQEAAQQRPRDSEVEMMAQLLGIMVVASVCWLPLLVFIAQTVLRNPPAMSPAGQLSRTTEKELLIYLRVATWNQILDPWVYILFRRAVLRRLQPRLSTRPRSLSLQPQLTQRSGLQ
# Experiment: biochemical
row,SMILES,IC50
1,"O=C1CCC(O)=C1Cc1cccc(CCNS(=O)(=O)c2ccc(Cl)cc2)c1 [Compound 50, 4-Chloro-N-(3-((2-hydroxy-5-oxocyclopent-1-en-1-yl)methyl)phenethyl)benzenesulfonamide]",11400 nM
2,"CC1=C(O)C(Cc2cccc(CCNS(=O)(=O)c3ccc(Cl)cc3)c2)CC1=O (stereo not drawn) [Compound 42, 4-Chloro-N-(3-((2-hydroxy-3-methyl-4-oxocyclopent-2-en-1-yl)methyl)phenethyl)-benzenesulfonamide]",328 nM
3,O=S(=O)(NCCc1cccc(CCCO)c1)c1ccc(Cl)cc1 [Compound 59],> 10000 nM
4,O=c1c(O)c(NCc2cccc(CCNS(=O)(=O)c3ccc(Cl)cc3)c2)c1=O [Compound 61],359 nM
5,O=S(=O)(NCCc1cccc(CCc2nnn[nH]2)c1)c1ccc(Cl)cc1 [Compound 60],331 nM
6,"O=C1C=C(O)C(Cc2cccc(CCNS(=O)(=O)c3ccc(Cl)cc3)c2)C1 (stereo not drawn) [Compound 41, 4-Chloro-N-(3-((2-hydroxy-4-oxocyclopent-2-en-1-yl)methyl)phenethyl)benzenesulfonamide]",203 nM
